According to patent US20230382926A1, “COMPOUNDS AND USES THEREOF” (The University of The West Indies, priority 2022, published 2023):

Columns and labels:
Experiment in all cases: Rescue concentration, modified checkerboard MIC adjuvant assay
Format in all cases: cell-based
[1] = tested on: Acinetobacter baumannii clinical isolate 9978; details: A. baumannii clinical isolate 9978
Experimental: (§1) Reference microorganisms as well as clinical strains used to evaluate the antimicrobial adjuvant properties of SP-6azaBIM 125 and SP-6azaBIM 136 are listed in Table 3. Clinical strains of bacteria were kindly provided by the Faculty of Medical Sciences, UWI, St. Augustine, Trinidad. All bacterial cultures were cryopreserved in 30% glycerol/Brain Heart Infusion (BHI) at −80° C. Cultures were revived on BHI agar (Oxoid Ltd, England) and maintained at 4° C. until needed.
(§2) Prior to each experiment, cultures were streaked onto clean BHI agar plates and incubated at 35° C. for 24 hours. Colonies of the respective cultures were selected and inoculated in phosphate buffer saline (pH 7.5) to a 0.5 McFarland turbidity standard (equivalent to 10^8 CFU mL^−1). For inhibitory studies the bacterial suspensions were diluted 1:100 in cation-adjusted Mueller Hinton Broth (ca-MHB) (Oxoid Ltd, England). Fastidious bacteria including Streptococcus pneumoniae, Haemophilus infuenzae and Clostridium difficile were maintained on BHI agar with 5% defibrinated sheep blood and diluted in ca-MHB with 5% defibrinated sheep blood.
(§3) Antibiotic powders used in this study were purchased from Sigma Aldrich Ltd. (WI, USA). Antibiotic stock solutions were made at 50 mg mL^−1 according to Andrews (2001) and working solutions were prepared 24 h before use and stored at 4° C.
(§4) HCl salts of the of the SP-azaBIM test compounds were prepared prior to testing and stored at 4° C. Working preparations of each compound were made to 1 mg/mL in sterile deionised water.
(§5) The antibiotic adjuvant activity of the SPazaBIMs were evaluated in combination with representative antibiotics (representing 13 antibiotic classes) against the 19 pathogens strains listed in Table 3. To assess the adjuvant properties of the SP-azaBIM molecules, a modified checkerboard minimum inhibitory concentration assay was used. A fixed concentration of the respective antibiotic (susceptible breakpoint concentration) was mixed with a twofold dilution series of the test SP-azaBIM (FIG. 1). This was to determine the concentration of SP-azaBIM needed potentiate the antibiotic at a clinically susceptible breakpoint concentration. Antibiotic susceptible breakpoint concentrations for the respective bacteria were determined using Clinical Laboratory Standards Institute (CLSI) criteria M100 ED31.
(§6) In this study, only those antibiotics to which the bacterial was classed as resistant were included in the adjuvant assays. In this assay we recorded the rescue concentration of the SP-BIM for a respective antibiotic. The rescue concentration was defined as the concentration of the adjuvant that reduces the minimum inhibitory concentration (MIC) of an antibiotic to the susceptibility breakpoint.
(§7) Immediately prior to testing, the respective antibiotic and SP-azaBIM was dissolved in sterile deionised water at 20× the required test concentration. Each microtiter well was then inoculated with 180 μl of bacterial inoculum of 10^6 CFU/ml in ca-MHB, and 10 μl each if the antibiotic and SP-azaBIM was added to the plates. These plates were then incubated at 35° C. for 24 h under aerobic conditions. A similar method was followed for the fastidious pathogens except that they were cultured in ca-MHB with 5% sheep blood and 5% CO2.
(§8) Bacterial growth was visually inspected after the incubation period and the rescue concentration of the test SP-azaBIM was determined as the lowest concentration of the compound needed to reduce bacterial growth by 99.99% at the susceptible breakpoint concentration of the antibiotic. For example, CLSI states that Pseudomonas aeruginosa is susceptible to the Imipenem if the MIC is ≤2 μg mL^−1. If the bacteria can tolerate this concentration in vitro, then the bacteria has an intermediate or absolute resistance toward that antibiotic. […]

[2] = tested on: Enterococcus faecalis ATCC 51299; details: E. faecalis ATCC 51299
Experimental: as §1, §2, §3, §4, §5, §6, §7, §8

[3] = tested on: Escherichia coli ATCC 35150; details: E. coli ATCC 35150
Experimental: as §1, §2, §3, §4, §5, §6, §7, §8

[4] = tested on: Klebsiella pneumoniae ATCC 49472; details: K. pneumoniae ATCC 49472
Experimental: as §1, §2, §3, §4, §5, §6, §7, §8

[5] = tested on: Klebsiella pneumoniae ATCC BAA-2814; details: K. pneumoniae ATCC BAA-2814
Experimental: as §1, §2, §3, §4, §5, §6, §7, §8

[6] = tested on: Pseudomonas aeruginosa MDR 5805; details: P. aeruginosa MDR 5805
Experimental: as §1, §2, §3, §4, §5, §6, §7, §8

[7] = tested on: Stenotrophomonas maltophilia MDR 7785; details: S. maltophilia MDR 7785
Experimental: as §1, §2, §3, §4, §5, §6, §7, §8

[8] = tested on: Streptococcus pneumoniae ATCC 49619; details: S. pneumoniae ATCC 49619
Experimental: as §1, §2, §3, §4, §5, §6, §7, §8

[9] = Amox at susceptible breakpoint 8 μg mL^−1
[10] = Cef at susceptible breakpoint 8 μg mL^−1
[11] = Col at susceptible breakpoint 2 μg mL^−1
[12] = Gen at susceptible breakpoint 4 μg mL^−1
[13] = Imi at susceptible breakpoint 2 μg mL^−1
[14] = Mero at susceptible breakpoint 2 μg mL^−1
[15] = Pol B at susceptible breakpoint 2 μg mL^−1
[16] = Amp at susceptible breakpoint 8 μg mL^−1
[17] = Chl at susceptible breakpoint 8 μg mL^−1
[18] = Dox at susceptible breakpoint 4 μg mL^−1
[19] = Col at susceptible breakpoint 8 μg mL^−1
[20] = Imi at susceptible breakpoint 1 μg mL^−1
[21] = Ceph at susceptible breakpoint 8 μg mL^−1

Brc1ccc(C(c2c[nH]c3cnccc23)c2c[nH]c3cnccc23)cc1 [SP-6azaBIM 125, 3,3′-((4-bromophenyl)methylene)bis(1H-pyrrolo[2,3-c]pyridine)]
128 µg/mL: Rescue concentration, Amox (8) [6, 9]
8 µg/mL: Rescue concentration, Mero (2) [1, 14] | Rescue concentration, Cip (0.25) ([3]; Cip at susceptible breakpoint 0.25 μg mL^−1) | Rescue concentration, Dox (4) [5, 18] | Rescue concentration, Cef (8) [7, 10] | Rescue concentration, Ceph (8) [7, 21] | Rescue concentration, Gen (4) [7, 12]
16 µg/mL: Rescue concentration, Amox (8) [1, 9] | Rescue concentration, Pol B (2) [1, 15] | Rescue concentration, Amp (8) [4, 16] | Rescue concentration, Amp (8) [5, 16] | Rescue concentration, Cef (16) ([5]; Cef at susceptible breakpoint 16 μg mL^−1) | Rescue concentration, Gen (4) [5, 12] | Rescue concentration, Gen (4) [6, 12] | Rescue concentration, Imi (2) [7, 13]
>128 µg/mL: Rescue concentration, Amp (8) [2, 16] | Rescue concentration, Chl (8) [2, 17] | Rescue concentration, Dox (4) [2, 18] | Rescue concentration, Ery (0.5) ([2]; Ery at susceptible breakpoint 0.5 μg mL^−1) | Rescue concentration, Tri (8) ([2]; Tri at susceptible breakpoint 8 μg mL^−1) | Rescue concentration, Van (4) ([2]; Van at susceptible breakpoint 4 μg mL^−1) | Rescue concentration, Col (2) [6, 11] | Rescue concentration, Imi (2) [6, 13] | Rescue concentration, Mero (2) [6, 14] | Rescue concentration, Pol B (2) [6, 15] | Rescue concentration, Amox (2) ([8]; Amox at susceptible breakpoint 2 μg mL^−1) | Rescue concentration, Ery (0.25) ([8]; Ery at susceptible breakpoint 0.25 μg mL^−1) | Rescue concentration, Imi (0.12) ([8]; Imi at susceptible breakpoint 0.12 μg mL^−1)
64 µg/mL: Rescue concentration, Tri (2) ([7]; Tri at susceptible breakpoint 2 μg mL^−1)
4 µg/mL: Rescue concentration, Col (2) [1, 11] | Rescue concentration, Imi (2) [1, 13] | Rescue concentration, Imi (1) [3, 20] | Rescue concentration, Amox (8) [4, 9] | Rescue concentration, Col (8) [4, 19] | Rescue concentration, Mero (1) ([4]; Mero at susceptible breakpoint 1 μg mL^−1) | Rescue concentration, Pol B (8) ([4]; Pol B at susceptible breakpoint 8 μg mL^−1) | Rescue concentration, Amox (8) [5, 9] | Rescue concentration, Aze (4) ([5]; Aze at susceptible breakpoint 4 μg mL^−1) | Rescue concentration, Col (8) [5, 19] | Rescue concentration, Chl (8) [7, 17] | Rescue concentration, Mero (2) [7, 14]
32 µg/mL: Rescue concentration, Dox (4) [3, 18] | Rescue concentration, Azi (16) ([5]; Azi at susceptible breakpoint 16 μg mL^−1) | Rescue concentration, Ceph (8) [5, 21] | Rescue concentration, Chl (8) [5, 17] | Rescue concentration, Tet (4) ([5]; Tet at susceptible breakpoint 4 μg mL^−1)
2 µg/mL: Rescue concentration, Cef (8) [1, 10] | Rescue concentration, Gen (4) [1, 12] | Rescue concentration, Col (8) [3, 19] | Rescue concentration, Imi (1) [4, 20] | Rescue concentration, Imi (1) [5, 20] | Rescue concentration, Cip (2) ([7]; Cip at susceptible breakpoint 2 μg mL^−1)
